# Tested on: H3K79me2 in A431 cells
# Assay: High content imaging assay of H3K79me2
# Details: 4 days
compound,measurement,value
Nc1ncnc2c1ncn2[C@@H]1O[C@H](CSCC[C@H](N)C(=O)O)[C@@H](O)[C@H]1O [SAH],"reduction of H3K79 methylation, result in words",ineffective

# — article PMC4504433 (ACS Chemical Biology, 2014)
